Tests used:
Assay type in all cases: in vivo, human
[1] = Quantitative sensory evaluation test: kokumi-imparting activity of peptides combined with known calcium receptor activators or additives; settings: for Intensity of kokumi: Aftertaste / Intensity of kokumi: First and middle taste: alone, n=12, 0 control, 3 intense, 6 extremely intense
Protocol: The intensity of the kokumi-imparting activity of each peptide having confirmed calcium receptor activation activity and a known calcium receptor activator used in combination was measured by a quantitative sensory evaluation test, performed as follows: Samples of γ-Glu-Cys-Gly (glutathione) or γ-Glu-Val-Gly (0.0001 to 1 g/dl), or these samples combined with a calcium receptor activator such as calcium lactate, protamine or polylysine, or GABA (addition concentration: 0.0001 to 1 g/dl) were added to distilled water containing sodium glutamate (0.05 g/dl), inosine monophosphate (0.05 g/dl), and sodium chloride (0.5 g/dl), and the intensity of the kokumi-imparting activity was measured. Sample solutions that became acidic after dissolution of the samples were adjusted to pH 6.8 to 7.2 with NaOH before use. Sensory evaluation scores were used to evaluate as follows: 0 points for the control sample, 3 points for intense activity (as intensity of 0.05 g/dl γ-Glu-Cys-Gly and 0.005 g/dl γ-Glu-Val-Gly), and 6 points for extremely intense activity (as twice intensity of 0.05 g/dl γ-Glu-Cys-Gly and 0.005 g/dl γ-Glu-Val-Gly), and the test was performed with n=12.

[2] = Quantitative sensory evaluation test: imparting kokumi to corn soup; settings: n=12, 0 control, 3 intense, 5 extremely intense
Protocol: The intensity of the activity for imparting kokumi to corn soup of each peptide having confirmed calcium receptor activation activity was measured by a quantitative sensory evaluation test, performed as follows: to commercially available corn soup, samples of either γ-Glu-Cys-Gly (glutathione) or γ-Glu-Val-Gly were added to a concentration of 0.0001 to 1 g/dl, and the intensity of the kokumi-imparting activity was measured for each sample. The corn soup with the samples that became acidic after dissolution of the samples with respect to the corn soup without the samples was adjusted with NaOH to pH not lower or higher by 0.2 than pH of the corn soup without the samples before use. Sensory evaluation scores were used to evaluate as follows: 0 points for the control sample, 3 points for intense activity as compared to the control, and 5 points for extremely intense activity as compared to the control, and the test was performed with n=12.

[3] = Quantitative sensory evaluation test: imparting kokumi to Japanese clear soup; settings: n=12, 0 control, 3 intense, 5 extremely intense
Protocol: The intensity of activity for imparting kokumi to clear soup of each peptide having confirmed calcium receptor activation activity was measured by a quantitative sensory evaluation test, performed as follows: Japanese clear soup was prepared by adding 0.5 g/dl of soy sauce and 0.6 g/dl of sodium chloride to bonito kelp stock, obtained by adding 5 g of dried kelp to 3 L of water, heating the water, adding 25 g of dried bonito flakes just before boiling, and then filtering the water containing kelp and bonito flakes. To this clear soup, samples of either γ-Glu-Cys-Gly (glutathione) or γ-Glu-Val-Gly was added to a concentration of 0.0001 to 1 g/dl, and the intensity of the kokumi-imparting activity was measured for each sample. The clear soup with the samples that became acidic after dissolution of the samples with respect to the clear soup without the samples were adjusted with NaOH to pH not lower or higher by 0.2 than pH of the clear soup without the samples before use. Sensory evaluation scores were used to evaluate as follows: 0 points for the control sample, 3 points for intense activity as compared to the control, and 5 points for extremely intense activity as compared to the control, and the test was performed with n=12.

[4] = Quantitative sensory evaluation test of activity on basic tastes (umami, sweet, salty, sour standards); settings: n=12, 0 control, 1 fairly intense, 2 intense; for Sour taste (intensity of activity on basic tastes): citric acid 0.05 g/dl standard; for Salty taste (intensity of activity on basic tastes): sodium chloride 0.7 g/dl standard; for Umami (intensity of activity on basic tastes): sodium glutamate 0.2 g/dl standard; for Sweet taste (intensity of activity on basic tastes): sucrose 5 g/dl standard
Protocol: The intensity of the activity on basic tastes of each peptide having confirmed calcium receptor activation activity was measured by a quantitative sensory evaluation test, performed as follows: Samples of either γ-Glu-Cys-Gly (glutathione) or γ-Glu-Val-Gly were added to distilled water (0.0001 to 1 g/dl) containing sodium glutamate (0.2 g/dl) for the umami standard, sucrose (5 g/dl) for the sweet taste standard, sodium chloride (0.7 g/dl) or the salty taste standard, or citric acid (0.05 g/dl) for the sour taste standard, and the intensity of the activity on basic tastes was measured for each sample.
Sample solutions that became acidic after dissolution of the samples with respect to the standard solutions without the samples were adjusted with NaOH to pH not lower or higher by 0.2 than pH of the standard solutions before use. Sensory evaluation scores were used to evaluate the intensity as follows: 0 points for the control sample, 1 point for fairly intense activity as compared to the control, and 2 points for intense activity as compared to the control, and the test was performed with n=12.

[5] = Quantitative sensory evaluation test: imparting kokumi to curry sauce; settings: n=12, 0 control, 3 intense, 5 extremely intense
Protocol: The intensity of the activity for imparting kokumi to curry sauce of each peptide having confirmed calcium receptor activation activity was measured by a quantitative sensory evaluation test, performed as follows: to curry sauce prepared in a conventional manner by using commercially available curry roux, samples of either γ-Glu-Cys-Gly (glutathione) or γ-Glu-Val-Gly were added to a concentration of 0.0001 to 1 g/dl, and the intensity of kokumi-imparting activity was measured for each sample. The curry sauces with the samples that became acidic after dissolution of the samples with respect to the curry soup without the samples were adjusted with NaOH to pH not lower or higher by 0.2 than pH of the curry soup without the samples before use. Sensory evaluation scores were used to evaluate as follows: 0 points for the control sample, 3 points for intense activity as compared to the control, and 5 points for extremely intense activity as compared to the control, and the test was performed with n=12.

SMILES: CC(C)[C@H](NC(=O)CC[C@H](N)C(=O)O)C(=O)NCC(=O)O [γ-Glu-Val-Gly]
- Intensity of kokumi: Aftertaste ([1]; 0.005 g/dl): 3.0 points
- Intensity of kokumi: First and middle taste ([1]; 0.005 g/dl): 3.0 points
- Intensity of kokumi: Aftertaste ([2]; 0.0005 g/dl): 3.0 points
- Intensity of kokumi: First and middle taste ([2]; 0.0005 g/dl): 2.5 points
- Intensity of kokumi: Aftertaste ([2]; 0.001 g/dl): 4.0 points
- Intensity of kokumi: First and middle taste ([2]; 0.001 g/dl): 3.5 points
- Intensity of kokumi: Aftertaste ([2]; 0.01 g/dl): 5.0 points
- Intensity of kokumi: First and middle taste ([2]; 0.01 g/dl): 4.5 points
- Intensity of kokumi: Aftertaste ([2]; 0.1 g/dl): 5.0 points
- Intensity of kokumi: First and middle taste ([2]; 0.1 g/dl): 5.0 points
- Intensity of kokumi: Aftertaste ([3]; 0.0005 g/dl): 3.0 points
- Intensity of kokumi: First and middle taste ([3]; 0.0005 g/dl): 2.5 points
- Intensity of kokumi: Aftertaste ([3]; 0.001 g/dl): 4.0 points
- Intensity of kokumi: First and middle taste ([3]; 0.001 g/dl): 3.5 points
- Intensity of kokumi: Aftertaste ([3]; 0.01 g/dl): 5.0 points
- Intensity of kokumi: First and middle taste ([3]; 0.01 g/dl): 5.0 points
- Intensity of kokumi: Aftertaste ([3]; 0.1 g/dl): 5.0 points
- Intensity of kokumi: First and middle taste ([3]; 0.1 g/dl): 5.0 points
- Sour taste (intensity of activity on basic tastes) ([4]; 0.005 g/dl): 0.5 points
- Salty taste (intensity of activity on basic tastes) ([4]; 0.005 g/dl): 0.5 points
- Umami (intensity of activity on basic tastes) ([4]; 0.005 g/dl): 0.7 points
- Sweet taste (intensity of activity on basic tastes) ([4]; 0.005 g/dl): 0.5 points
- Sour taste (intensity of activity on basic tastes) ([4]; 0.01 g/dl): 1.0 points
- Salty taste (intensity of activity on basic tastes) ([4]; 0.01 g/dl): 1.0 points
- Umami (intensity of activity on basic tastes) ([4]; 0.01 g/dl): 1.5 points
- Sweet taste (intensity of activity on basic tastes) ([4]; 0.01 g/dl): 1.0 points
- Intensity of kokumi: Aftertaste ([5]; 0.001 g/dl): 3.0 points
- Intensity of kokumi: First and middle taste ([5]; 0.001 g/dl): 2.5 points
- Intensity of kokumi: Aftertaste ([5]; 0.005 g/dl): 4.0 points
- Intensity of kokumi: First and middle taste ([5]; 0.005 g/dl): 3.5 points
- Intensity of kokumi: Aftertaste ([5]; 0.01 g/dl): 5.0 points
- Intensity of kokumi: First and middle taste ([5]; 0.01 g/dl): 5.0 points
- Intensity of kokumi: Aftertaste ([5]; 0.1 g/dl): 5.0 points
- Intensity of kokumi: First and middle taste ([5]; 0.1 g/dl): 5.0 points

SMILES: N[C@@H](CCC(=O)N[C@@H](CS)C(=O)NCC(=O)O)C(=O)O [γ-Glu-Cys-Gly, reference compound]
- Intensity of kokumi: Aftertaste ([1]; 0.05 g/dl): 3.0 points
- Intensity of kokumi: First and middle taste ([1]; 0.05 g/dl): 3.0 points
- kokumi-imparting activity when used with a known calcium receptor activator or the like such as calcium ([1]; conclusion from Table 13): can have improved kokumi-imparting activity
- Intensity of kokumi: Aftertaste ([2]; 0.01 g/dl): 3.0 points
- Intensity of kokumi: First and middle taste ([2]; 0.01 g/dl): 3.0 points
- Intensity of kokumi: Aftertaste ([3]; 0.01 g/dl): 2.0 points
- Intensity of kokumi: First and middle taste ([3]; 0.01 g/dl): 2.0 points
- Sour taste (intensity of activity on basic tastes) ([4]; 0.10 g/dl): 1.5 points
- Salty taste (intensity of activity on basic tastes) ([4]; 0.10 g/dl): 0.2 points
- Umami (intensity of activity on basic tastes) ([4]; 0.10 g/dl): 0.7 points
- Sweet taste (intensity of activity on basic tastes) ([4]; 0.10 g/dl): 1.5 points
- Intensity of kokumi: Aftertaste ([5]; 0.01 g/dl): 3.0 points
- Intensity of kokumi: First and middle taste ([5]; 0.01 g/dl): 3.0 points
